Several values for one entry are separate records, joined by “and”; a condition that tells them apart may be missing. Equal values may be shown once.
Biological target: T1, TOP2A-DNA covalent complex (Homo sapiens, UniProt P11388)
T1 construct: endogenous in cells; host or cells: HEK293F
Assay: RADAR assay, etoposide-induced TOP2A-DNA covalent complex in HEK293F cells
Format: cell-based
Details: for TOP2A spot intensity: independent replicates
Description: HEK293F cells were plated at 3 × 10^5 cells per well and grown overnight. […] Upon removal of media, cells in each well were immediately lysed with 750 µL DNAzol (Molecular Research Center, Inc.) and the DNA was precipitated by addition of 375 µL of 100% ethanol. This step was then repeated to eliminate protein aggregates. Precipitate from each sample was pelleted via centrifugation at 4 °C and max speed for 5 min. The pellets were washed twice with buffer containing 20 mM Tris pH 7.5, 1 mM EDTA pH 8.0, 50 mM NaCl, 50% EtOH, and at the end of each wash, centrifugation at 4000 × g for 2 min was repeated to isolate the DNA pellets. The pellets were washed in 75% EtOH and then collected by centrifugation at 4 °C and max speed for 5 min. The supernatant was removed via pipetting, and the remaining pellets were air dried for 5 min before 50 µL 8 mM NaOH and 0.1% Tween-20 was added to each pellet. Once no visible precipitate remained, each mixture was supplemented with 5 µL of Benzonase buffer containing 500 mM Tris pH 8.0, 10 mM MgCl2, 1/1000 Roche complete protease inhibitor cocktail (Millipore Sigma) and 40 units Benzonase (Millipore Sigma) followed by 30 to 60 min incubation at 37 °C until the pellets were fully dissolved. The DNA content from each sample was quantified on a nanodrop, and 10 µg of DNA was diluted to a final volume of 200 µL in 8 mM NaOH and 0.1% Tween. The samples were applied over the Whatman Minifold I dot blot apparatus (Cytiva) and collected on a PVDF membrane (Thermo Fisher Scientific). The membrane was washed three times with 8 mM NaOH and 0.1% Tween-20 solution prior to removal and blocking with the same wash solution containing 1 mg/mL BSA. Western blotting was carried out on an iBind (Thermo Fisher Scientific) and TOP2 proteins were detected using isoform-specific antibody against full length TOP2A (1:250 dilution; HT2A21, Inspiralis) and TOP2B (1:500 dilution; 611493, BD Biosciences) and visualized with anti-rabbit (1:1000 dilution; 926-68071, LI-COR Bio) and anti-mouse (1:1000 dilution; 926-32210, LI-COR Bio) secondary antibodies in iBind running buffer. The blots were imaged on a LI-COR Odyssey Fc and analysed using ImageStudio. Each presented data point was obtained from distinct sample.

T1 sequence (P11388 whole entry, one chain of several): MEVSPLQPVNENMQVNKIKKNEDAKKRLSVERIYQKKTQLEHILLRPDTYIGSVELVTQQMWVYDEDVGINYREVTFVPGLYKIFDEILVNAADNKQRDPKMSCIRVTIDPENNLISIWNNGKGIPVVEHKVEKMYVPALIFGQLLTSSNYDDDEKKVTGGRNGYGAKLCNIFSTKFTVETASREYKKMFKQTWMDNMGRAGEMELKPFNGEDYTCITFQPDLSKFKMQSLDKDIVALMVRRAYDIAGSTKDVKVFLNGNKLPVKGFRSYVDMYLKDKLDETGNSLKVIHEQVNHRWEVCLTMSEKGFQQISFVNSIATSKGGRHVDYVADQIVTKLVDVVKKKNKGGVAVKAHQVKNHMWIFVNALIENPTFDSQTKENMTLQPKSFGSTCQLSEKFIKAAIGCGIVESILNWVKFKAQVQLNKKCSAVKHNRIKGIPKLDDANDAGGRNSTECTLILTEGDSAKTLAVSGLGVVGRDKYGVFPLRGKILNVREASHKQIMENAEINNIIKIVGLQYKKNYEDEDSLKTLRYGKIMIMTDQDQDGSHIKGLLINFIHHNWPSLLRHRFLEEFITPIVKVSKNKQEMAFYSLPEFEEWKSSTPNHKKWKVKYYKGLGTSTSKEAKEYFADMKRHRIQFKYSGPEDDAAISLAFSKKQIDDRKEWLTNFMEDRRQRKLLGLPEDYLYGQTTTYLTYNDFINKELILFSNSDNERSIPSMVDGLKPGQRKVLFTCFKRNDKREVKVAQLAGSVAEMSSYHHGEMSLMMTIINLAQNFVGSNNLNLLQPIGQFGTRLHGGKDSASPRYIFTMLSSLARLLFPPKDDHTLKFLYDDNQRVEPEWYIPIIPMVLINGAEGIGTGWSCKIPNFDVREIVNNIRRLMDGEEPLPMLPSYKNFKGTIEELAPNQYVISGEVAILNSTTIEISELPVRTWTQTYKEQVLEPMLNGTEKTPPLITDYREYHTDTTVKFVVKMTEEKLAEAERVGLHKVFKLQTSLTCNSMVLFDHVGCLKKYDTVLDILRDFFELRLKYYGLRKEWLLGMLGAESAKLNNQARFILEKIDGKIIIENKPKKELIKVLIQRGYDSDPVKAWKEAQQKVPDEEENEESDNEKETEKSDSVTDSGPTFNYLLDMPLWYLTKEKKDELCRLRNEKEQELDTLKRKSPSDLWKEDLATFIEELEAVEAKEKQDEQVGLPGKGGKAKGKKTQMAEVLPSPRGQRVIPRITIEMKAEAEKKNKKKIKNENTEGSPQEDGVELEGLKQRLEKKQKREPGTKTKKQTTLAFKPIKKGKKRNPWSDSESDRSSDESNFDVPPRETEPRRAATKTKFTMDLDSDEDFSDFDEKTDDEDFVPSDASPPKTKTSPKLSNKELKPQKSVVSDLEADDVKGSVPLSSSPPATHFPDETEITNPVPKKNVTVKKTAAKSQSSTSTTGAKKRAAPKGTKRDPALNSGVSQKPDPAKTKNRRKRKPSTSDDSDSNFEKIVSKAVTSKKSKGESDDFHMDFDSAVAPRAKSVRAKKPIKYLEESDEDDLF

What does the source list for CCCc1cc(=O)oc2c(C(=O)N3CCCc4ccccc43)c(OCCN3CCN(C)CC3)ccc12 [topobexin (9)]?
TOP2A spot intensity (Cmpd 9 0.1 μM + etoposide 5 μM): 56.77 and 79.14 and 121.2 and 109.4 and 138; TOP2A spot intensity (Cmpd 9 1 μM + etoposide 5 μM): 31.84 and 81.31 and 94.03 and 77.86 and 117.3; TOP2A spot intensity (Cmpd 9 10 μM + etoposide 5 μM): 13.9 and 41.59 and 30.46 and 21.29 and 12.52; TOP2A spot intensity (Cmpd 9 10 μM, etoposide 0, background subtracted): 0.2099 and 13.4 and 11.83 and 3.115 and 7.885; concentration significantly reducing TOP2A-DNA CC (etoposide-induced, HEK293F): 10 µM
